US7396837B2, “Antitumoral analogs of lamellarins” (Pharma Mar, S.A.U., priority 2002, dated 2008)
Read-outs that look alike come from different tables or passages of the source.

Experiments:
[1] = test system: K-562; assay: SRB colorimetric cell growth inhibition assay, K-562; type: cell-based; conditions: Homo sapiens, K562, K-562; for GI50: GI=growth inhibition, read-out: GI50 K-562; for CC50: read-out: LC50 K-562; for IC (TGI): read-out: TGI K-562
In short: (§1)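 Continuous drug exposure of human cancer cells; SRB protein stain read-out; triplicate wells, mean ± SD; GI, TGI, LC computed.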

[2] = test system: A-549; assay: SRB colorimetric cell growth inhibition assay, A-549; type: cell-based; conditions: Homo sapiens, A549, A-549; for GI50: GI=growth inhibition, read-out: GI50 A-549; for CC50: read-out: LC50 A-549; for IC (TGI): read-out: TGI A-549
In short: as §1

[3] = test system: SK-MEL-28; assay: SRB colorimetric cell growth inhibition assay, SK-MEL-28; type: cell-based; conditions: Homo sapiens, SK-MEL-28, MEL-28; for GI50: GI=growth inhibition, read-out: GI50 MEL-28; for CC50: cell killing (cytotoxic effect), read-out: LC50 MEL-28; for IC (TGI): total growth inhibition (cytostatic effect), read-out: TGI MEL-28
In short: as §1

[4] = test system: HT-29; assay: SRB colorimetric cell growth inhibition assay, HT-29; type: cell-based; conditions: Homo sapiens; for CC50: HT-29, HT-29, read-out: LC50 HT-29; for GI50 / IC (TGI): HT-29; for GI50: GI=growth inhibition, read-out: GI50 HT-29; for IC (TGI): read-out: TGI HT-29
In short: as §1

[5] = test system: LoVo; assay: SRB colorimetric cell growth inhibition assay, LoVo; type: cell-based; conditions: Homo sapiens; for CC50: LoVo, read-out: LC50 LOVO; for GI50 / IC (TGI): LOVO; for GI50: GI=growth inhibition, read-out: GI50 LOVO; for IC (TGI): read-out: TGI LOVO
In short: as §1

[6] = test system: LoVo-Dox; assay: SRB colorimetric cell growth inhibition assay, LoVo-Dox (MDR); type: cell-based; conditions: Homo sapiens, LOVO-DOX; for GI50: GI=growth inhibition, read-out: GI50 LOVO-DOX; for CC50: read-out: LC50 LOVO-DOX; for IC (TGI): read-out: TGI LOVO-DOX
In short: as §1

[7] = test system: DU-145; assay: SRB colorimetric cell growth inhibition assay, DU-145; type: cell-based; conditions: Homo sapiens; for CC50: DU-145, DU-145, cell killing (cytotoxic effect), read-out: LC50 DU-145; for GI50 / IC (TGI): DU-145; for GI50: GI=growth inhibition, read-out: GI50 DU-145; for IC (TGI): total growth inhibition (cytostatic effect), read-out: TGI DU-145
In short: as §1

[8] = test system: LNCaP; assay: SRB colorimetric cell growth inhibition assay, LNCaP; type: cell-based; conditions: Homo sapiens, LNCaP, LN-caP; for GI50: GI=growth inhibition, read-out: GI50 LN-caP; for CC50: cell killing (cytotoxic effect), read-out: LC50 LN-caP; for IC (TGI): total growth inhibition (cytostatic effect), read-out: TGI LN-caP
In short: as §1

[9] = test system: SK-BR-3; assay: SRB colorimetric cell growth inhibition assay, SK-BR-3; type: cell-based; conditions: Homo sapiens; for CC50: SK-BR-3, SK-BR-3, cell killing (cytotoxic effect), read-out: LC50 SK-BR-3; for GI50 / IC (TGI): SK-BR-3; for GI50: GI=growth inhibition, read-out: GI50 SK-BR-3; for IC (TGI): total growth inhibition (cytostatic effect), read-out: TGI SK-BR-3
In short: as §1

[10] = test system: IGROV; assay: SRB colorimetric cell growth inhibition assay, IGROV; type: cell-based; conditions: Homo sapiens, IGROV; for CC50: cell killing (cytotoxic effect), read-out: LC50 IGROV; for GI50: GI=growth inhibition, read-out: GI50 IGROV; for IC (TGI): total growth inhibition (cytostatic effect), read-out: TGI IGROV
In short: as §1

[11] = test system: IGROV-ET; assay: SRB colorimetric cell growth inhibition assay, IGROV-ET (ET-743 resistant); type: cell-based; conditions: Homo sapiens, IGROV-ET; for GI50: GI=growth inhibition, read-out: GI50 IGROV-ET; for CC50: cell killing (cytotoxic effect), read-out: LC50 IGROV-ET; for IC (TGI): total growth inhibition (cytostatic effect), read-out: TGI IGROV-ET
In short: as §1

[12] = test system: PANC-1; assay: SRB colorimetric cell growth inhibition assay, PANC-1; type: cell-based; conditions: Homo sapiens; for CC50 / IC (TGI): PANC-1, PANC-1; for CC50: read-out: LC50 PANC-1; for IC (TGI): read-out: TGI PANC-1; for GI50: PANC-1, GI=growth inhibition, read-out: GI50 PANC-1
In short: as §1

[13] = target: T1, human topoisomerase I (Homo sapiens, UniProt P11387); assay: Topoisomerase I DNA relaxation assay (supercoiled plasmid DNA); type: biochemical; conditions: supercoiled plasmid DNA, each compound tested at 1 μM, agarose gel with ethidium bromide
T1 sequence (P11387 1-765): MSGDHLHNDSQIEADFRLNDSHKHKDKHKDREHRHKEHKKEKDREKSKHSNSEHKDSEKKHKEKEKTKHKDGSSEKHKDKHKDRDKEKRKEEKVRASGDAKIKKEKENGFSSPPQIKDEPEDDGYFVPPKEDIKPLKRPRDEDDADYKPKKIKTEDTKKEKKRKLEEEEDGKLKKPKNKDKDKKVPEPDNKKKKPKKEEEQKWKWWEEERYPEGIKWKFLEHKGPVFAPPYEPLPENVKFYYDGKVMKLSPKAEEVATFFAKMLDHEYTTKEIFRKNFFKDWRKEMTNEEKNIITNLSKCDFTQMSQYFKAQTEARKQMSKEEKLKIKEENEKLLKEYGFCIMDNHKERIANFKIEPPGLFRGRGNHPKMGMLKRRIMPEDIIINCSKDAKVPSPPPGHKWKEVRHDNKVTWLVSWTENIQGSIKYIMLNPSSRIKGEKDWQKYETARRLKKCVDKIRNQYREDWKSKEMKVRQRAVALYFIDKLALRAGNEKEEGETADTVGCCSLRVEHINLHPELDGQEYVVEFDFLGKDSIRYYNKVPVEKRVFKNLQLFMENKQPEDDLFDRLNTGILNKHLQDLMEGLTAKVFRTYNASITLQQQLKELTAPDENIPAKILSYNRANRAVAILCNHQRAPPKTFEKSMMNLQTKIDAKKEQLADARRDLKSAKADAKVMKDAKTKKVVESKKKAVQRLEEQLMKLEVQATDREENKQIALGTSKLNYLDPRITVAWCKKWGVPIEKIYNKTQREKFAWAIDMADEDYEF
In short: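 Test compounds (1 μM each) were present during topoisomerase I relaxation of supercoiled plasmid DNA. Relaxation was assessed on ethidium bromide-stained agarose gels.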

[14] = LC=cell killing (cytotoxic effect)
[15] = TGI=total growth inhibition (cytostatic effect)
[16] = cell killing (cytotoxic effect)
[17] = total growth inhibition (cytostatic effect)

Compound | GI50 [1] | GI50 [2] | GI50 [3] | CC50 [3] | IC (TGI) [3] | GI50 [4] | GI50 [5] | GI50 [6] | CC50 [7] | GI50 [7] | IC (TGI) [7] | GI50 [8] | CC50 [8] | IC (TGI) [8] | CC50 [9] | GI50 [9] | IC (TGI) [9] | CC50 [10] | GI50 [10] | IC (TGI) [10] | also measured
COc1cc(-c2c3n(c4c(=O)oc5cc(OC(=O)[C@H](NC(=O)OC(C)(C)C)C(C)C)c(OC)cc5c24)CCc2cc(OC(=O)[C@H](NC(=O)OC(C)(C)C)C(C)C)c(OC)cc2-3)ccc1OC(=O)[C@H](NC(=O)OC(C)(C)C)C(C)C [Compound 34] | 1.04 µM | 1.47 µM | 1.36 µM | 5.58 µM | 2.76 µM | 1.16 µM | 0.84 µM | 9.1 µM | 6.5 µM | 0.196 µM | 0.588 µM | 0.461 µM | 4.11 µM | 1.57 µM | 8.95 µM | 1.18 µM | 3.25 µM | 8.74 µM | 0.307 µM | 2.11 µM | CC50 [1, 14]: 6.62 µM; IC (TGI) [1, 15]: 2.61 µM; CC50 [2, 14]: 9.1 µM; IC (TGI) [2, 15]: 3.71 µM; CC50 [4, 14]: 9.1 µM; IC (TGI) [4, 15]: 5.39 µM; CC50 [5, 14]: 9.1 µM; IC (TGI) [5, 15]: 4.02 µM; CC50 [6, 14]: 9.1 µM; IC (TGI) [6, 15]: 9.1 µM; GI50 [11]: 2.07 µM; CC50 [11]: 9.1 µM; IC (TGI) [11]: 4.63 µM; CC50 [12, 14]: 9.1 µM; IC (TGI) [12, 15]: 0.992 µM; GI50 [12]: 0.301 µM; stimulation of DNA cleavage by topoisomerase I / inhibition of topoisomerase I (nicked DNA band) in DNA relaxation assay [13]: No effect
COc1cc(-c2c3n(c4c(=O)oc5cc(OC(=O)[C@@H](N)Cc6c[nH]c7ccccc67)c(OC)cc5c24)CCc2cc(OC(=O)[C@@H](N)Cc4c[nH]c5ccccc45)c(OC)cc2-3)ccc1OC(=O)[C@@H](N)Cc1c[nH]c2ccccc12 [Compound 24] | 0.68 µM | 1.55 µM | 1.38 µM | 5.74 µM | 2.81 µM | 7.13 µM | 0.749 µM | 0.891 µM | 7.13 µM | 0.913 µM | 2.94 µM | 0.934 µM | 3.89 µM | 1.91 µM | 5.58 µM | 0.653 µM | 1.93 µM | 7.13 µM | 1.23 µM | 4.82 µM | CC50 [1, 16]: 5.3 µM; IC (TGI) [1, 17]: 1.91 µM; CC50 [2, 16]: 7.13 µM; IC (TGI) [2, 17]: 3.37 µM; CC50 [4, 16]: 7.13 µM; IC (TGI) [4, 17]: 7.13 µM; CC50 [5, 16]: 4.28 µM; IC (TGI) [5, 17]: 1.78 µM; CC50 [6, 16]: 7.13 µM; IC (TGI) [6, 17]: 3.66 µM; GI50 [11]: 1.31 µM; CC50 [11]: 7.13 µM; IC (TGI) [11]: 7.13 µM; CC50 [12, 16]: 7.13 µM; IC (TGI) [12, 17]: 6.23 µM; GI50 [12]: 1.34 µM; stimulation of DNA cleavage by topoisomerase I / inhibition of topoisomerase I (nicked DNA band) in DNA relaxation assay [13]: inhibit topoisomerase I
